Data set [1] relates to herpes simplex virus 1 (HSV-1). The class given is cell-based.
Data set [2] concerns the target DENV RNA-dependent polymerase (Dengue virus type 2, UniProt P14340). The settings on record: Wu et al. 2002; cited from earlier work.
Data set [3] deals with DENV2-Fluc(WT) replicon RNA. Nature of the data set: DENV2-Fluc(WT) replicon translation, luciferase, Huh7 cells. It is filed as cell-based, Dengue virus. As to conditions: 6 hours post-electroporation; QL compounds 2 μM, cycloheximide 30 μg/mL. On the technique in general: Replicon systems follow genome replication, usually without infectious particles.
Data set [4] deals with DENV2-Fluc (GDV) replicon RNA. Nature of the data set: DENV2-Fluc(GDV) mutant replicon translation, luciferase, Huh7 cells. The class given is cell-based, Dengue virus. The settings on record: 6 hours post-electroporation; QL compounds 2 μM, cycloheximide 30 μg/mL.
For data set [5], the system named is DENV2 New Guinea C (DENV2-NGC). Nature of the data set: Viral yield reduction assay, DENV2-NGC in Huh7 cells, titration by focus forming assay (FFA). The class given is cell-based, Dengue virus.
For data set [6], the system named is Huh7 cells. Nature of the data set: CellTiter-Glo luminescent cell viability assay (cytotoxicity). The class given is cell-based. As to conditions: 20 μM, the highest concentration tested. How it is done: As a positive control for cytotoxicity, some wells were supplemented with 0.1% saponin. The plates were incubated for 24 hours at 37° C., and the cell cytotoxicity was measured following the instructions of the CellTiter-Glo Luminescent cell viability assay (Promega G7570).
(ATP-based viability assays read luminescence as a measure of living cells.)

For data set [7], the system named is Kunjin virus. Nature of the data set: Kunjin virus yield reduction in Huh7 cells, plaque assay in BHK21 cells. It is filed as cell-based. As to conditions: 2 μM.
Data set [8] relates to recombinant viral particles (RVP) with dengue structural proteins and West Nile virus reporter RNA. Nature of the data set: Single-cycle reporter viral particle (RVP) assay, Renilla luciferase, Huh7 cells. It is filed as cell-based. The settings on record: entry and translation of subgenomic replicon RNA.
In data set [9] the test system is DENV2 replicon. It is filed as cell-based, Dengue virus. The settings on record: 2 μM added at 24 hours, read at 72 hours post-electroporation.
Data set [10] relates to DENV2 virus-like particles (VLPs). Nature of the data set: DENV virus-like particle (VLP) expression and secretion, Huh7 cells, Western blot. The class given is cell-based, Dengue virus. The settings on record: 3 μM, supernatants 24 hours post-treatment. How it is done: The plasmid used for virus-like particles (VLP) production was provided by Stephen Harrison. Briefly, the codon optimized sequence of DENV2-FGA/02 prM-E (Wang et al., PLoS ONE (2009) 4:e8325) was introduced in the pCDNA3.1 vector. To produce VLPs, Huh7 cells were transfected with pCDNA3.1-D2.VLP using Lipofectamine 2000 (Life Technologies 11668-019) according to the manufacturer's instructions. […] The supernatants were collected at 24 hours post-treatment and precipitated for 3 hours at 4° C. by the addition of 0.075% of PEG 8000. The VLPs were pelleted by centrifugation at 10,000 g for 15 min at 4° C. The pellet was suspended in 200 μl of 1×TNE (10 mM Tris-HCl pH 7.5, 2.5 mM EDTA, 50 mM NaCl), loaded over a sucrose cushion (800 μl of 12.5% sucrose in 1×TNE), and centrifuged at 100,000 g for 2 h at 4° C. The supernatants were discarded, and the purified VLPs were suspended in 50 μl of 1×TNE. 25 μl of purified VLPs were analyzed for DENV2 E protein expression by Western blotting using 4G2 antibody. An equal amount of purified VLPs was loaded on a SDS-PAGE and submitted to Coomassie staining to control for equal loading of the VLPs-enriched supernatants. Steady state expression of DENV2 E protein in the cell lysates was analyzed by Western blotting using 4G2 antibody.
Background: Immunoblotting shows a protein as a band on a membrane.

Data set [11] deals with encephalomyocarditis virus (EMCV) IRES. The class given is cell-based.
Data set [12] deals with VSV. It is filed as cell-based, vesicular stomatitis virus.
In data set [13] the test system is VSV pseudotyped with rabies virus glycoprotein (RABV). It is filed as cell-based, vesicular stomatitis virus.
Data set [14] deals with VSV pseudotyped with Ebola glycoprotein (EboV). It is filed as cell-based, vesicular stomatitis virus.
For data set [15], the system named is human cytomegalovirus (HCMV). It is filed as cell-based.
Data set [16] concerns poliovirus. It is filed as cell-based.
In data set [17] the test system is Japanese Encephalitis virus (JEV). The class given is cell-based.
For data set [18], the system named is Junin virus. The class given is cell-based.
The test system of data set [19] is influenza virus. It is filed as cell-based.
Data set [20] relates to vaccinia virus. The class given is cell-based.
Data set [21] concerns Ebola glycoprotein (EBOV). The class given is cell-based, Ebola virus.
The subject of data set [22] is Marburg virus (MARV). It is filed as cell-based.
For data set [23], the system named is Junin virus (JUNV). The class given is cell-based.
In data set [24] the test system is Lassa fever virus (LASV). The class given is cell-based.
Data set [25] concerns Venezuelan equine encephalitis virus (VEEV). It is filed as cell-based.
The subject of data set [26] is Rift Valley fever virus (RVFV). It is filed as cell-based.
The subject of data set [27] is vesicular stomatitis virus (VSV). The class given is cell-based.
In data set [28] the test system is poliovirus Type 1 (PV1). The class given is cell-based.
In data set [29] the test system is DENV2 virus. Nature of the data set: DENV2 viral production time course in Huh7 cells (FFU/ml, RTqPCR, Western blot). It is filed as cell-based, Dengue virus. The settings on record: 4 μM.
The subject of data set [30] is Vero.
Data set [31] relates to BHK21.
The test system of data set [32] is 3T3.
Data set [33] deals with Hela.
Data set [34] relates to 293.
For data set [35], the system named is DENV1 WP74. Nature of the data set: Yield reduction assay, DENV1-WP74 in Huh7 cells, FFA in Vero cells. The settings on record: Huh7 MOI 1, FFA in Vero cells.
Data set [36] relates to DENV3 THD3. Nature of the data set: Yield reduction assay, DENV3-THD3 in Huh7 cells, FFA in Vero cells. As to conditions: Huh7 MOI 1, FFA in Vero cells.
The subject of data set [37] is DENV4 TVP360. Nature of the data set: Yield reduction assay, DENV4-TVP360 in Huh7 cells, FFA in Vero cells. As to conditions: Huh7 MOI 1, FFA in Vero cells.
Data set [38] concerns DENV2-NGC genomic RNA. Nature of the data set: Time course of intracellular DENV genomic RNA by qRT-PCR and in situ hybridization. The settings on record: 2 μM, MOI 1, normalized to GAPDH.
Data set [39] concerns DENV2 virus. Nature of the data set: QL-XII-47 biotin test, DENV2 in Huh7 cells, titration in FFU/ml. The class given is cell-based, Dengue virus. The settings on record: treated for 24 or 48 h.

“Also recorded” adds a separate entry of the source. Where two headings read alike, the source gives them in different places.

The term EC50 denotes the concentration giving half of the maximal effect. A word on the EC90: it is the point of the concentration-response curve where the effect stands at 90%. A lower EC90 goes with an effect from little substance.

With `Nc1nc2c(ncn2COCCO)c(=O)[nH]1` [acyclovir, reference compound], the plaques detected result in [1] (8 μM) was “no plaques were detected”.
As to `C[C@@]1(O)[C@H](O)[C@@H](CO)O[C@H]1n1ccc2c(N)ncnc21` [Compound 7-DMA], in [2], the concentration giving a half-maximal response (EC50) is 15 µM.
As to `C[C@@H]1C[C@@H]([C@H](O)CC2CC(=O)NC(=O)C2)C(=O)[C@@H](C)C1` [CHX, cycloheximide, reference compound], the “luciferase activity (translation of input RNA)” value (“luciferase activity” for short) in data set [3] and in [4] was “Reduced luciferase activity” in each case.
As to `C=CC(=O)N1CCC[C@@H](n2nc(-c3ccc(Oc4ccccc4)cc3)c3c(N)ncnc32)C1` [PCI-32765, reference compound], in data set [5] (added 1 hour post-infection, MOI 1, FFA at 24 h post-infection), the “effect on DENV yield” value is reported as “not inhibited; also recorded: no effect”.
For the molecule `C=CC(=O)N1CCc2ccc(-n3c(=O)ccc4cnc5ccc(-c6cnn(C)c6)cc5c43)cc21` [QL-XII-47], the activity against strain result in data set [5] (DENV2 NGC, Huh7 MOI 1, FFA in Vero cells) is on record as “potent activity”; in [35], “potent activity”; in data set [36] it was “potent activity”; in data set [37], “potent activity”. The same molecule gave an EC90 in [5] (Dengue virus, DENV2, Huh-7) of 0.4 µM. Further, in [5] (at single-digit micromolar concentrations), the “decrease in DENV2 New Guinea C (DENV2-NGC) yield / drop in viral titer” value was > 3 log10 unit. In addition, the “inhibition of DENV after pretreatment of cells” value in [5] (cells pretreated for 6 hours and washed prior to infection) is “potent inhibition”. In [5] (time-of-addition experiment), the “time of addition giving maximal anti-DENV effect” value is on record as 0-3 hours post-infection. Further, the cytotoxicity result is recorded as “no cytotoxicity; also recorded: not observed” in data set [6]; “not observed” in data set [30]; “not observed” in [31]; “not observed” in [32]; “single-digit micromolar cytotoxicity” in data set [33]; “single-digit micromolar cytotoxicity” in [34]. For the same molecule, in data set [7], the “reduction in Kunjin virus yield” value is “greater than 10 fold”. The “inhibition in single-cycle reporter virus assay” value in data set [8] is on record as “potent inhibitory activity”. Moreover, the “activity on electroporated subgenomic reporter replicon” value in [9] was “does not have activity”. Besides, in data set [10], the “yield of virus-like particles (VLPs)” value is “did not inhibit”. Moreover, the “luciferase activity” value in data set [3] and in data set [4] was “Reduced luciferase activity” each time. For the same molecule, the “EMCV IRES-dependent translation” value in [11] is recorded as “reduces translation; also recorded: inhibited”. Besides, the inhibition of infection result in data set [12], in data set [13] and in data set [14] was “inhibits infection” in each case. The “inhibition of reporter HCMV infection” value in data set [15] is reported as “inhibits”. Further, in [1], the “inhibition of infection and plaque formation” value is given as “inhibits”. Also, the plaques detected result in data set [1] is on record as “no plaques were detected”. Further, the “inhibition of infection and viral gene expression” value in data set [16] is “inhibits”. Besides, the “inhibition of cytopathic effects” value in data set [17] and in data set [18] was “modest inhibitor” in each case. Moreover, the activity against virus result in data set [19] and in data set [20] was “no activity” throughout. Moreover, the inhibitory activity result in [21], in data set [22], in data set [23], in data set [24], in data set [25] and in data set [26] was “inhibitory activity” in each case. Moreover, in [27], the “inhibition of VSV” value is “inhibited”. Besides, the “inhibition of PV1” value in [28] is “inhibited”. Also, the “expression of DENV proteins NS3 and core (Western blot)” value in data set [29] is “reduced steady-state expression”. Further, in data set [29] (after about 12 hours of infection), the “DENV2 viral production (FFU/ml, viral count)” value was “inhibited”. Moreover, the “DENV genomic RNA copy number over time” value in data set [38] was “relatively unchanged copy number”.
`CN(C/C=C/C(=O)N1CCc2ccc(-n3c(=O)ccc4cnc5ccc(-c6cnn(C)c6)cc5c43)cc21)CCNC(=O)NCCOCCOCCOCCNC(=O)CCCC1SCC2NC(=O)NC21` (stereo not drawn) [QL-XII-47-biotin]: the “inhibitory activity against dengue virus” value in data set [39] is listed as “significantly reduced inhibitory activity”.
For the molecule `C=CC(=O)Nc1cc(-n2c(=O)ccc3cnc4ccc(-c5cnn(C)c5)cc4c32)ccc1C` [QL-XII-56], the “luciferase activity” value in data set [3] and in [4] was “Reduced luciferase activity” throughout. The “EMCV IRES-dependent translation” value in data set [11] was “inhibited”. In addition, the inhibitory activity entry in data set [21], in [22], in data set [23], in data set [24], in [25] and in [26] was “inhibitory activity” in each case. The “inhibition of VSV” value in data set [27] is recorded as “inhibited”. The “inhibition of PV1” value in [28] is “inhibited”.

These data come from US9879003B2, “Host targeted inhibitors of dengue virus and other viruses” (priority 2012, dated 2018).
